Columns and labels:
Assay type in all cases: in vivo
[1] = test system: ducksalad (Heteranthera limosa); assay: Test B flooded paddy test; details: Heteranthera limosa, Flood, 250 g ai/ha; scale of 0 to 100 where 0 is no effect and 100 is complete control; read-out: Ducksalad plant response rating
How it was run: (§1)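 Compound goes directly into floodwater once pots are flooded 3 cm above soil, targeting plants at two leaves; the water depth is then held for the test duration. Plants sit 13–15 d in a greenhouse and are rated visually, 100 denoting complete control.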

[2] = test system: sedge, umbrella (small-flower umbrella sedge, Cyperus difformis); assay: Test B flooded paddy test; details: Cyperus difformis, Flood, 250 g ai/ha; scale of 0 to 100 where 0 is no effect and 100 is complete control; read-out: Sedge, Umbrella plant response rating
How it was run: as §1

[3] = test system: barnyardgrass (Echinochloa crus-galli); assay: Test B flooded paddy test; details: Echinochloa crus-galli, Flood, 250 g ai/ha; scale of 0 to 100 where 0 is no effect and 100 is complete control; read-out: Barnyardgrass plant response rating
How it was run: as §1

rice (Oryra sativa) = assay: Test B flooded paddy test; details: Oryza sativa, Flood, 250 g ai/ha; scale of 0 to 100 where 0 is no effect and 100 is complete control; read-out: Rice plant response rating
How it was run: as §1

[4] = test system: giant foxtail (Setaria faberii); assay: Test A preemergence; details: Setaria faberi, pre-emergence, 240 h; for pest or weed control at 125 g/ha: 125 g ai/ha, preemergence, 0 to 100 scale where 0 is no effect and 100 is complete control, read-out: Foxtail, Giant plant response rating; for pest or weed control at 500 g/ha: 500 g ai/ha, Preemergence, visual injury vs untreated controls after approximately 10 d, read-out: Foxtail, Giant plant response rating (0 to 100 scale where 0 is no effect and 100 is complete control)
How it was run: (§2)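 Each rating is a visual injury score from 0 to 100 given about 10 d after treatment, judged against untreated controls kept alongside in the greenhouse. In loam soil–sand blend, seeds got a preemergence directed soil spray, while postemergence plants were 2 to 10 cm tall at spraying.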

Kochia (Kochia scoparia) = assay: Test A preemergence; details: Bassia scoparia, pre-emergence, 240 h; for pest or weed control at 125 g/ha: 125 g ai/ha, preemergence, 0 to 100 scale where 0 is no effect and 100 is complete control, read-out: Kochia plant response rating; for pest or weed control at 500 g/ha: 500 g ai/ha, Preemergence, visual injury vs untreated controls after approximately 10 d, read-out: Kochia plant response rating (0 to 100 scale where 0 is no effect and 100 is complete control)
How it was run: as §2

[5] = test system: ryegrass, Italian (Italian ryegrass, Lolium multiflorum); assay: Test A preemergence; details: Lolium multiflorum, pre-emergence, 240 h; for pest or weed control at 125 g/ha: 125 g ai/ha, preemergence, 0 to 100 scale where 0 is no effect and 100 is complete control, read-out: Ryegrass, Italian plant response rating; for pest or weed control at 500 g/ha: 500 g ai/ha, Preemergence, visual injury vs untreated controls after approximately 10 d, read-out: Ryegrass, Italian plant response rating (0 to 100 scale where 0 is no effect and 100 is complete control)
How it was run: as §2

[6] = test system: ragweed (common ragweed, Ambrosia elatior); assay: Test A preemergence; details: Ambrosia artemisiifolia, pre-emergence, 240 h; for pest or weed control at 125 g/ha: 125 g ai/ha, preemergence, 0 to 100 scale where 0 is no effect and 100 is complete control, read-out: Ragweed plant response rating; for pest or weed control at 500 g/ha: 500 g ai/ha, Preemergence, visual injury vs untreated controls after approximately 10 d, read-out: Ragweed plant response rating (0 to 100 scale where 0 is no effect and 100 is complete control)
How it was run: as §2

[7] = test system: pigweed (Amaranthus retroflexus); assay: Test A preemergence; details: Amaranthus retroflexus, pre-emergence, 240 h; for pest or weed control at 125 g/ha: 125 g ai/ha, preemergence, 0 to 100 scale where 0 is no effect and 100 is complete control, read-out: Pigweed plant response rating; for pest or weed control at 500 g/ha: 500 g ai/ha, Preemergence, visual injury vs untreated controls after approximately 10 d, read-out: Pigweed plant response rating (0 to 100 scale where 0 is no effect and 100 is complete control)
[8] = test system: barnyardgrass (Echinochloa crus-galli); assay: Test A preemergence; details: Echinochloa crus-galli, pre-emergence, 240 h; for pest or weed control at 125 g/ha: 125 g ai/ha, preemergence, 0 to 100 scale where 0 is no effect and 100 is complete control, read-out: Barnyardgrass plant response rating; for pest or weed control at 500 g/ha: 500 g ai/ha, Preemergence, visual injury vs untreated controls after approximately 10 d, read-out: Barnyardgrass plant response rating (0 to 100 scale where 0 is no effect and 100 is complete control)
How it was run: as §2

[9] = test system: ryegrass, Italian (Italian ryegrass, Lolium multiflorum); assay: Test A postemergence; details: Lolium multiflorum, post-emergence, 240 h, 125 g ai/ha, postemergence, visual injury rating after approximately 10 d; read-out: Ryegrass, Italian plant response rating (0 to 100 scale, 0 no effect, 100 complete control)
How it was run: as §2

corn (Zea mays) = assay: Test A postemergence; details: Zea mays, post-emergence, 240 h, 125 g ai/ha, postemergence, visual injury rating after approximately 10 d; read-out: Corn plant response rating (0 to 100 scale, 0 no effect, 100 complete control)
How it was run: as §2

[10] = test system: ragweed (common ragweed, Ambrosia elatior); assay: Test A postemergence; details: Ambrosia artemisiifolia, post-emergence, 240 h, 125 g ai/ha, postemergence, visual injury rating after approximately 10 d; read-out: Ragweed plant response rating (0 to 100 scale, 0 no effect, 100 complete control)
How it was run: as §2

[11] = test system: pigweed (Amaranthus retroflexus); assay: Test A postemergence; details: Amaranthus retroflexus, post-emergence, 240 h, 125 g ai/ha, postemergence, visual injury rating after approximately 10 d; read-out: Pigweed plant response rating (0 to 100 scale, 0 no effect, 100 complete control)
How it was run: as §2

[12] = test system: blackgrass (Alopecurus myosuroides); assay: Test A postemergence; details: Alopecurus myosuroides, post-emergence, 240 h, 125 g ai/ha, postemergence, visual injury rating after approximately 10 d; read-out: Blackgrass plant response rating (0 to 100 scale, 0 no effect, 100 complete control)
How it was run: as §2

SMILES	pest or weed control at 250 g/ha [1]	pest or weed control at 250 g/ha [2]	pest or weed control at 250 g/ha [3]	pest or weed control at 250 g/ha (rice (Oryra sativa))	pest or weed control at 125 g/ha [4]	pest or weed control at 500 g/ha [4]	pest or weed control at 125 g/ha (Kochia (Kochia scoparia))	pest or weed control at 500 g/ha (Kochia (Kochia scoparia))	pest or weed control at 125 g/ha [5]	pest or weed control at 500 g/ha [5]	pest or weed control at 125 g/ha [6]	pest or weed control at 500 g/ha [6]	pest or weed control at 125 g/ha [7]	pest or weed control at 500 g/ha [7]	pest or weed control at 125 g/ha [8]	pest or weed control at 500 g/ha [8]	pest or weed control at 125 g/ha [9]	plant injury at 125 g/ha (corn (Zea mays))	pest or weed control at 125 g/ha [10]	pest or weed control at 125 g/ha [11]	further results
O=C1NCC(c2cccc(I)c2)C1C(=O)Nc1ccccc1F (stereo not drawn) [Compound 845]	0%	0%	30%	20%	80%	90%	40%	90%	0%	30%	0%	0%	0%	0%	90%	90%	30%	30%	0%	0%	pest or weed control at 125 g/ha [12]: 40%
CN1C[C@H](c2cccc(COC(F)F)c2)[C@@H](C(=O)Nc2ccccc2S(C)(=O)=O)C1=O [Compound 877]	100%	0%	55%	0%	90%	90%	60%	80%	0%	20%	0%	60%	0%	0%	90%	100%	20%	0%	0%	0%	pest or weed control at 125 g/ha [12]: 0%
